Where “and” joins values, the source holds several entries; their conditions need not be identical. Equal entries are not always repeated.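 96-well plates; 48 h exposure; 5 concentrations. Endpoints by linear interpolation between flanking doses. Not reached: highest tested concentration assigned. GI50 = concentration required for 50% inhibition of growth. At the TGI there is no net growth.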
Key:
Test in all cases: NCI anticancer screen, dose series, 48 h
786-0 renal = system: 786-0 renal
ACHN renal = system: ACHN renal
BT-549 breast = system: BT-549 breast
M14 melanoma = system: M14 melanoma
MALME-3M melanoma = system: MALME-3M melanoma
NCI-H226 lung = system: NCI-H226 lung
NCI-H23 lung = system: NCI-H23 lung
OVCAR-5 ovarian = system: OVCAR-5 ovarian
RPMI-8226 leukemia = system: RPMI-8226 leukemia
SF-295 CNS = system: SF-295 CNS
SF-539 CNS = system: SF-539 CNS
SK-MEL-28 melanoma = system: SK-MEL-28 melanoma
U251 CNS = system: U251 CNS
UO-31 renal = system: UO-31 renal

SMILES	TGI (786-0 renal)	TGI (ACHN renal)	TGI (BT-549 breast)	TGI (M14 melanoma)	TGI (MALME-3M melanoma)	TGI (NCI-H226 lung)	TGI (NCI-H23 lung)	TGI (OVCAR-5 ovarian)	TGI (RPMI-8226 leukemia)	TGI (SF-295 CNS)	TGI (SF-539 CNS)	TGI (SK-MEL-28 melanoma)	TGI (U251 CNS)	TGI (UO-31 renal)	GI50 (SF-539 CNS)
CC(=O)Nc1cc2c3c(c1)CCCN3CCC2	> 100 µM	> 100 µM	> 100 µM	> 100 µM	> 100 µM	> 100 µM	> 100 µM	> 100 µM	> 100 µM	> 100 µM	> 100 µM	> 100 µM	> 100 µM	> 100 µM	
CCOC(=O)C(C)NC(=O)C(C)NC(=O)C(C)NC(=O)C(C)NC(=O)C(C)NC(=O)OCc1ccccc1 (configuration not stated)	> 100 µM	> 100 µM	> 100 µM	> 100 µM	> 100 µM	> 100 µM	> 100 µM	> 100 µM	> 100 µM	> 100 µM	> 100 µM	> 100 µM	> 100 µM	> 100 µM	
COc1cc2cccc(N)c2cc1OC	> 100 µM	> 100 µM	> 92.6 µM	> 100 µM	> 100 µM	> 100 µM	> 100 µM	> 100 µM	> 100 µM	> 100 µM	> 100 µM	> 100 µM	> 100 µM	> 100 µM	
O=C(O)CCc1ccc2c(c1)C(=O)CC2	> 100 µM	> 100 µM	> 100 µM	> 100 µM	> 100 µM	> 100 µM	> 100 µM	> 100 µM	> 100 µM	> 100 µM	> 100 µM	> 100 µM	> 100 µM	> 100 µM	
COC(=O)C1OC(O[C@H]2CC[C@]3(C)[C@H]4CC=C5[C@@H]6CC(C)(C)CC[C@]6(C(=O)OC6OCC(O)C(O)C6OC6OC(C)C(OC7OCC(O)C(OC8OCC(O)C(O)C8O)C7O)C(OC7OCC(O)C(O)C7O)C6O)CC[C@@]5(C)[C@]4(C)CC[C@H]3C2(C)C)C(O)C(OC2OCC(O)C(O)C2O)C1O (some centres not stated)	> 100 µM and 16.6 µM	22.1 µM and 15.9 µM	8.45 µM and 9.89 µM	3.7 µM and 5.19 µM	19.4 µM and 18.3 µM	11 µM and 17.8 µM	> 36.7 µM and 16.2 µM	22.5 µM and 15.8 µM	9 µM and 15.6 µM	11.5 µM and 17 µM	> 100 µM	4.02 µM and 6.16 µM	> 100 µM and 20.6 µM	4.36 µM and 4.14 µM	> 100 µM and 47.6 µM
NCCN1C(=O)CN=C(c2ccc(Cl)cc2)c2cc(Cl)ccc21	30.4 µM	33 µM	30.3 µM	30.3 µM	29.7 µM	31 µM	37.1 µM	30.9 µM	36.4 µM	> 100 µM	34.1 µM	> 100 µM	31.5 µM	27.3 µM	
N/N=C(\C(=O)Nc1ccc(Cl)cc1Cl)C(c1cnc2ccccc2n1)[N+](=O)[O-] (configuration not stated)	> 100 µM	> 100 µM	> 100 µM	> 100 µM	> 100 µM	> 100 µM	> 100 µM	> 100 µM	> 100 µM	> 100 µM	> 100 µM	> 100 µM	> 100 µM	> 100 µM	
CN(C)P(=O)(Oc1ccc(CC(NC(=O)OCc2ccccc2)C(=O)OCc2ccccc2)cc1)N(C)C (configuration not stated)	17.5 µM	33.9 µM	32.4 µM	32 µM	32.7 µM	52.8 µM	28.1 µM	38.6 µM	15.2 µM	34.5 µM	39.7 µM	34.4 µM	28.2 µM	33.3 µM	
COC(=O)C(=O)C(C(=O)C(=O)Nc1nc2ccc(C)cc2s1)c1nc2ccc([N+](=O)[O-])cc2[nH]c1=O (configuration not stated)	> 100 µM	> 100 µM	> 100 µM	> 100 µM	> 100 µM	> 100 µM	> 100 µM	> 100 µM	> 100 µM	> 100 µM	> 100 µM	> 100 µM	> 100 µM	> 100 µM	
Cc1cc(S(=O)(=O)Nc2cc(N)[nH]n2)c(SCc2nc(N)nc(N(C)C)n2)cc1Cl	> 10 µM	> 10 µM	> 10 µM	> 10 µM	> 10 µM	> 10 µM	> 10 µM	> 10 µM	> 10 µM	> 10 µM	> 10 µM	> 10 µM	> 10 µM	> 10 µM	
N#Cc1ccccc1NC(=O)C(=O)c1c(O)c2ccccc2oc1=O	> 100 µM	> 100 µM	> 100 µM	> 100 µM	> 100 µM	> 100 µM	> 100 µM	> 100 µM	> 100 µM	> 100 µM	> 100 µM	> 100 µM	> 100 µM	> 100 µM	
COC(=O)/C=C1/CCC(C)(C(=O)NS(=O)(=O)c2ccc(C)cc2)C1(C)C (configuration not stated)	> 100 µM	> 100 µM	> 100 µM	> 100 µM	> 100 µM	> 100 µM	> 100 µM	> 100 µM	> 100 µM	> 100 µM	> 100 µM	> 100 µM	> 100 µM	> 100 µM	
CCOC(=O)c1cnc2n(c1=N)[C@H]1CCCC[C@@H]1N2	> 100 µM	> 100 µM	> 100 µM	> 100 µM	> 100 µM	> 100 µM	> 100 µM	> 100 µM	> 100 µM	> 100 µM	> 100 µM	> 100 µM	> 100 µM	> 100 µM	
CCOc1ccc(N/C(Cl)=C(Cl)\C(=C(\Nc2ccc(OCC)cc2)n2nnc3ccccc32)[N+](=O)[O-])cc1	14.2 µM	15.1 µM	14 µM	17.3 µM	5.49 µM	60.5 µM	22.3 µM	27 µM	> 30.5 µM	57.7 µM	11.1 µM	20.9 µM	22 µM	23.9 µM	

From PubChem BioAssay (NCI)
